Where two headings read alike, the source gives them in different places.
What was measured:
[1] = system: NF-κB-mediated TNFα synthesis in human monocytes; test: cells; type: cell-based; conditions: Monocyte, 100 nM PMA, read-out: IC50 value after PMA stimulus (TNFα synthesis)
[2] = system: NF-κB-mediated TNFα synthesis in human monocytes; test: cells; type: cell-based; conditions: Monocyte, LPS 125 ng/ml, 18 hours, TNFα ELISA, read-out: IC50 (inhibition of NF-κB-mediated TNFα synthesis)
[3] = system: human tissue factor promoter (luciferase) in RAW-A3 cells (RAW 264.7 transfectant); test: Inhibition of NF-κB-mediated expression of the human tissue factor gene: promoter-luciferase reporter in RAW-A3 monocyte cells; type: cell-based; conditions: read-out: IC50 (tissue factor promoter-driven luciferase activity)
Description: Inhibition of the NF-κB-mediated Gene Expression of the Human Tissue Factor Gene in Monocytes
Therefore, for the further detection of the inhibition of the NFκB-mediated gene expression by the inhibitors according to the invention, the following biological test was carried out:
The promoter fragment of the human tissue factor gene which contains the NF-κB binding sequence was cloned with oligonucleotide primers of the sequence 5′-TCCCTCGAGATCTCCCAGAGGCAAACTGCCAGAT-3′ (5′ primer of position −925) and 5′-TCCTCGAGCCATGGCTACCAGTTGGGCGGCGAGATC-3′ (3′ primer containing the ATG start codon of the coding sequence of the tissue factor gene) by means of the polymerase chain reaction (PCR) and fused by means of an NcoI/XhoI cloning with the luciferase start codon in the plasmid pGL3-basic vector (Promega Corp. 2800 Woods Hollow Road, Madison, Wis. 53711-5399 USA). […]
After a further 6 hours, the culture supernatant is aspirated and the cells are processed for the measurement of the luciferase activity according to the procedure of the “Luciferase Assay System” (Technical Bulletin of Promega, 2800 Woods Hollow Road, Madison, Wis. 53711-5399 USA. Products E4030, E1483, E1501). The cell lyzate is incubated with the luciferase assay substrate and measured in a luminometer to measure the emitted light. […]

[4] = system: ELAM-1 expression in HUVECs; test: TNF-induced expression of ELAM-1 on HUVEC surface (FACS, anti-ELAM-1 antibody); type: cell-based, human
Description: Inhibition of the NF-κB-mediated Gene Expression of the Adhesion Protein ELAM-1 to Human Umbilical Cord Endothelial Cells (HUVEC)
(§1) The influence of compound I-3-R on the expression of ELAM-1 was checked in two different test batches. In one functional batch, the adhesion of human neutrophils to TNF-α-stimulated HUVEC cells was measured. The expression of ELAM-1 on the surface of the HUVECs was determined using a fluorescence-labeled ELAM-1-specific monoclonal antibody by means of FACS (cell sorting) analysis.
Experimental Procedure Quantitative Measurement of the TNF-induced Expression of ELAM-1 in HUVECs
Umbilical cord endothelial cells (HUVEC) were cultured as described above and incubated for 4 hours in the presence or absence of test substances in the presence or absence of 10 ng/ml of TNF. […] After centrifuging and washing again, the cells were taken up in 1 ml of PBS plus 1% BSA and measured at 488 nm in a flow cytometer (Becton and Dickinson). The intensity of the fluorescence as a function of bound anti-ELAM-1 antibody per cell is measured by this process. 5000 cells were measured for each value.

[5] = system: interleukin-2 promoter (luciferase) in SS-1 cell line; test: Inhibition of interleukin-2 synthesis: interleukin-2 promoter-luciferase reporter cell line (SS-1), PMA/ionomycin induced; type: cell-based; conditions: IL-2 promoter reporter cell line, PMA 5 ng/ml + ionomycin, 24 hours; read-out: IC50 (inhibition of induction of luciferase activity to 50%)
From the text: Inhibition of Interleukin-2 Synthesis
For the testing of the inhibitory action of cyclopentabenzene derivatives on interleukin-2 synthesis, a receptor gene cell line was used which contains the interleukin-2 promoter coupled to the luciferase gene. The promoter contains the DNA sequence from −480 to +4. The vector employed is pGL3; the starting cell line in which the total construct has been stably transfected is SS-1. The culture medium for this cell line was RPMI 1640 (Gibco, Rockille). It additionally contained: 100 μg/ml of streptomycin, 100 U/ml of penicillin, 2 mM L-glutamine, 10% heat-inactivated FBS and 800 μg/ml of G418 sulfate.
The reporter gene test cell line was inoculated into 96-well plates to 1×10^6 cells per well in Phenol Red-free RPMI with the additives and incubated at 37° C. in an atmosphere of 5% CO2, 95% air with phorbol 12-myristate 13-acetate (PMA; 5 ng/ml) and ionomycin ([…]; 0.4 μg/ml) for 24 hours. The test substances were added simultaneously with PMA.
For the generation of the luminescence, LucLite™ solution (Packard, Meriden, Conn.) was added to a concentration of 100 μl/well and the luminescence was measured in a luminometer (Luminoskan, Labsystems) immediately after addition.

[6] = system: adhesion of human neutrophils to TNF-α-stimulated HUVEC cells; test: ELAM-dependent adhesion of human neutrophils to TNF-α-stimulated HUVEC; type: cell-based
Description: as §1
Experimental Procedure: ELAM-dependent Neutrophil Adhesion to Endothial Cells
The neutrophils were isolated from human blood (100 ml). To this end, 3.5 ml of Polyprep was introduced into a centrifuge bucket and carefully coated with 5 ml of blood. After centrifuging at 2100 min^−1 for 30 minutes, the neutrophil band in the center of the centrifuge bucket was aspirated. After 1:2 dilutions in Clonetics endothelial cell basal medium (EBM), the neutrophils were again centrifuged at 1000 min^−1 for 20 minutes and then made up to a cell concentration of 10^6 cells/ml.
The umbilical cord endothelial cells were grown to confluence in EBM+10% FCS in 96 well microtiter plates. At the start of the experiment, the medium was replaced by EBM without FCS and the experimental substances then employed. After 20 minutes, the HUVECs were stimulated using 10 nM TNF-α. […] The fluorescence of the adherent neutrophils was then measured in a fluorescence photometer.

Structure (SMILES) | IC50 [1] [nM] | IC50 [2] [nM] | IC50 ([3]; RAW264.7, 6 h) [nM] | IC50 ([3]; RAW264.7, RAW-A3 cells, induction with 15% serum, 6 hours) [nM] | Completeness of inhibition of ELAM-1 expression ([4]; HUVEC, 10 ng/ml TNF, 4 hours, FACS, all concentrations investigated) | Inhibition of expression of ELAM-1 on the cell surface (maximum inhibition) ([4]; TNF-α-stimulated HUVECs, inhibited to 50%) [%] | IC50 [5] [nM] | Inhibition of adhesion of neutrophils to TNF-α-stimulated HUVECs ([6]; 10 nM TNF-α, 4 hours, inhibited to 50%) [%] | Concentration at which maximum inhibition of cell adhesion was determined ([6]; neutrophil adhesion to TNF-α-stimulated HUVECs) [nM]
COC(=O)CN[C@@H]1C[C@@H](c2ccccc2)[C@]2(c3ccc(OC)cc3)Oc3cc(OC)cc(OC)c3[C@]12O [Example I-5, methyl (1α,3β,3aβ,8bβ)-N-(3,3a-dihydro-6,8-dimethoxy-3a-(4-methoxyphenyl)-3-phenyl-cyclopenta[b]benzofuran-8b(2H)-ol-1-yl)-2-aminoacetate] | 90 | 500 | 2000 | – | – | – | – | – | –
COc1ccc([C@@]23Oc4cc(OC)cc(OC)c4[C@]2(O)[C@@H](O)C[C@H]3c2ccccc2)cc1 (racemic) [Example I-1, (1α,3α,3aα,8bα)-3,3a-dihydro-6,8-dimethoxy-3a-(4-methoxyphenyl)-3-phenyl-1H-cyclopenta[b]benzofuran-1,8b(2H)-diol] | 100 | 500 | – | 20000 | – | – | – | – | –
COc1ccc([C@@]23Oc4cc(OC)cc(OC)c4[C@]2(O)[C@H](O)C[C@H]3c2ccccc2)cc1 (racemic) [Example I-3-R] | – | 100 | – | – | completely inhibited at none of the concentrations investigated | 50 | 5 to 10 | 50 | 50
